Test results as given in patent US11512053B2, “Arginine methyltransferase inhibitors and uses thereof” (priority 2013, dated 2022).
Where a name gives a salt, the structure may show the parent alone. Read-outs that look alike come from different tables or passages of the source.

How the values were obtained:
[1] = molecular target: full-length human PRMT6 (Flag- and His-tagged) (Homo sapiens, UniProt Q96LA8); assay: PRMT6 Biochemical Assay (3H-SAM Flashplate, peptide substrate); conditions: read-out: Biochemical IC50 PRMT6
Outline: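 Radiometric methyltransferase readout: tritium transfer onto a biotin-tagged histone H4 36-50 peptide bearing monomethyl K44 (75 nM), captured on streptavidin Flashplates after stopping with 400 uM unlabeled SAM. Enzyme is baculovirus-expressed Flag-PRMT6-His at 1 nM, given 30 min with compound at room temperature before adding 200 nM 3H-SAM and 250 nM cold SAM (pH 7.6 Bicine, 2% DMSO). Percent inhibition relative to max/min (1 mM SAH) controls, curve-fit to IC50.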

[2] = molecular target: full-length human PRMT1 isoform 1 (GST-tagged) (Homo sapiens, UniProt Q99873); assay: PRMT1 Biochemical Assay (3H-SAM Flashplate, peptide substrate)
Outline: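 Tritiated methyl transfer from 3H-SAM onto biotinylated peptide, captured on streptavidin Flashplates and counted. Baculovirus-expressed GST-PRMT1 and compound were preincubated 30 min at room temperature in Bicine buffer pH 7.6. Cold SAM at 300 uM final ended the reaction.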

[3] = single experiment or average of multiple experiments

full-length human PRMT1 isoform 1 (GST-tagged), sequence (Q99873 with tags, fused parts or gaps): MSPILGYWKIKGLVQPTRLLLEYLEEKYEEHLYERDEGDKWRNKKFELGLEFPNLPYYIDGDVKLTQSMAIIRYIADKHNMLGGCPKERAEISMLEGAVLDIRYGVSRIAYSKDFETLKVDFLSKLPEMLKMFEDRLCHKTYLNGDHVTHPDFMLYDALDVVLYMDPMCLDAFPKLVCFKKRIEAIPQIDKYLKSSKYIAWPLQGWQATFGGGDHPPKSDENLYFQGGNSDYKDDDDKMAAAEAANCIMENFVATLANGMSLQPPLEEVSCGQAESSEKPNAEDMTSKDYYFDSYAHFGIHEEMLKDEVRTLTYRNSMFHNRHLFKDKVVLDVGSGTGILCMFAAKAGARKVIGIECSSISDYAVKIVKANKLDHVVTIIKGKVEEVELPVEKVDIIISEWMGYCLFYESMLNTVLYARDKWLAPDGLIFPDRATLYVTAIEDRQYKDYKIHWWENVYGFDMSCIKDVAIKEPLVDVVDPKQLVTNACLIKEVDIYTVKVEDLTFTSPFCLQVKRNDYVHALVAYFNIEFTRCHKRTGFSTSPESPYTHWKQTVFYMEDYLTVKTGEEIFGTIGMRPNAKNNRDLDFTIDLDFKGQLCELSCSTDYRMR
full-length human PRMT6 (Flag- and His-tagged), sequence (Q96LA8 with tags, fused parts or gaps): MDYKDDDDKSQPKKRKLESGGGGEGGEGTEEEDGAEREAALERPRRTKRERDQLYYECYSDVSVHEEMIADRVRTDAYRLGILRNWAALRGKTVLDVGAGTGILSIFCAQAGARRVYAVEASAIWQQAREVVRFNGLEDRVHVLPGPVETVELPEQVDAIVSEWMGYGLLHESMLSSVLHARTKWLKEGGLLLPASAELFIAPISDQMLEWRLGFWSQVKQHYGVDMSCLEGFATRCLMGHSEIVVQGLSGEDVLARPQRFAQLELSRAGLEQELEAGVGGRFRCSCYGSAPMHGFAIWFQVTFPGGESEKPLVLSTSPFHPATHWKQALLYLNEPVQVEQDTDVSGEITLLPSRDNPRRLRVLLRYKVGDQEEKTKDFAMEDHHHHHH

SMILES | IC50 [1] | IC50 [1, 3] | IC50 [2] | IC50 [2, 3]
CNCCN(C)Cc1c[nH]nc1C1CCC2(CCC(C)(C)CC2)OC1 (stereo not drawn) [Compound 65] | < 100 nM | 41.9 nM | < 100 nM | 9.65 nM
CNCCN(C)Cc1c[nH]nc1C1CC(COC)C(C)(C)C(COC)C1 (stereo not drawn) [Compound 86] | 3010 to 10000 nM | 3410 nM | 1010 to 3000 nM | 1940 nM
CNCCN(C)Cc1c[nH]nc1C1CCC(C)(C)C(C(=O)NCC(C)C)C1 (stereo not drawn) [Compound 90] | 101 to 1000 nM | 122 nM | < 100 nM | 34.4 nM
CNCCN(C)Cc1c[nH]nc1C1CCC(C)(C)C(C(=O)NCCC(C)C)C1 (stereo not drawn) [Compound 91] | < 100 nM | 63.1 nM | < 100 nM | 16.7 nM
CNCCN(C)Cc1c[nH]nc1C1CCC(C)(C)C(C(=O)NCc2ccccc2)C1 (stereo not drawn) [Compound 92] | < 100 nM | 49 nM | < 100 nM | 20.9 nM
CNCCN(C)Cc1c[nH]nc1C1CCC(C)(C)C(COCC(C)C)C1 (stereo not drawn) [Compound 95] | < 100 nM | 69.2 nM | < 100 nM | 9.35 nM
CNCCN(C)Cc1c[nH]nc1[C@@H]1CCC(C)(C)[C@@H](C(=O)NCCOC)C1 [Compound 269] | 101 to 1000 nM | 107 nM | < 100 nM | 51.3 nM
CNCCN(C)Cc1c[nH]nc1[C@H]1CCC(C)(C)[C@@H](C(=O)NCCCOC)C1 [Compound 270] | 101 to 1000 nM | 149 nM | < 100 nM | 62.5 nM
CNCCN(C)Cc1ccnn1C1CCC2(CC1)CC(C)(C)CO2 (stereo not drawn) [Compound 274, trifluoroacetate] | 101 to 1000 nM | 103 nM | < 100 nM | 8.19 nM
CNCCN(C)Cc1ccnn1C1CCC2(CCCC2)CC1 [Compound 275, Methyl[2-(methylamino)ethyl][(1-[spiro[4.5]decan-8-yl]-1H-pyrazol-5-yl)methyl]amine trifluoroacetate] | < 100 nM | 18.6 nM | < 100 nM | 4.62 nM

More lines, now with the values ahead:

IC50 [1] | IC50 [1, 3] | IC50 [2] | IC50 [2, 3] | SMILES
< 100 nM | 18 nM | < 100 nM | 7.8 nM | CNCCN(C)Cc1c[nH]nc1C1CCC(Oc2ccccc2)CC1 (stereo not drawn) [Compound 67]
< 100 nM | 44 nM | < 100 nM | 9.2 nM | CCC(CC)OC1CCC(c2n[nH]cc2CN(C)CCNC)CC1 (stereo not drawn) [Compound 70]
3010 to 10000 nM | 3730 nM | 101 to 1000 nM | 564 nM | CCOCC1CC(c2n[nH]cc2CN(C)CCNC)CC(COCC)C1(C)C (stereo not drawn) [Compound 87]
< 100 nM | 71.9 nM | < 100 nM | 31.3 nM | CNCCN(C)Cc1c[nH]nc1C1CCC(C)(C)C(C(=O)NCCCOC)C1 (stereo not drawn) [Compound 93]
101 to 1000 nM | 141 nM | < 100 nM | 68.6 nM | CNCCN(C)Cc1c[nH]nc1[C@H]1CCC(C)(C)[C@@H](C(=O)NCCOC)C1 [Compound 268]
101 to 1000 nM | 121 nM | < 100 nM | 37.1 nM | CNCCN(C)Cc1c[nH]nc1[C@@H]1CCC(C)(C)[C@@H](C(=O)NCCCOC)C1 [Compound 271, (1S,5R)—N-(3-methoxypropyl)-2,2-dimethyl-5-[4-({methyl[2-(methylamino)ethyl]amino}methyl)-1H-pyrazol-3-yl]cyclohexane-1-carboxamide]
< 100 nM | 73.9 nM | < 100 nM | 12.4 nM | CNCCN(C)Cc1c[nH]nc1C1CCC(C)(C)[C@H](OCCCOC)C1 (stereo partly drawn) [Compound 272]
< 100 nM | 40.5 nM | < 100 nM | 11.4 nM | CNCCN(C)Cc1c[nH]nc1C1CCC(C)(C)[C@H](OCC2CCOCC2)C1 (stereo partly drawn) [Compound 273, ({3-[(3R)-4,4-dimethyl-3-(oxan-4-ylmethoxy)cyclohexyl]-1H-pyrazol-4-yl}methyl)(methyl)[2-(methylamino)ethyl]amine]
